Laboratory results reported in patent US10842152B2, “Isothiazolo-based bicycles, processes for their preparation and their use as herbicides and/or plant growth regulators” (Bayer CropScience Aktiengesellschaft, priority 2017, dated 2020).

Experiments:
MATIN [1] = test: Herbicidal effect post-emergence; assay type: in vivo, Matricaria inodora; conditions: 320 g/ha, visual grading after ca. 3 weeks (Table 7)
Text: Seeds of mono- and dicotyledonous weed plants and crop plants are sown in wood-fiber pots in sandy loam, covered with soil and grown in a greenhouse under controlled growth conditions. 2 to 3 weeks after sowing, the test plants are sprayed in the single-leaf stage. The compounds according to the invention, formulated in form of wettable powders (WP) or as emulsifiable concentrates (EC), are then sprayed onto the green plant parts as aqueous suspension or emulsion, with the addition of 0.5% of an additive, at an application rate of 600 l of water/ha (converted). After the test plants had been in the greenhouse for ca. 3 weeks under optimum growth conditions, the effect of the preparations is assessed visually in comparison with untreated controls (herbicidal effect in percent (%): 100% effect=plants have died off, 0% effect=as control plants).

Setaria viridis [2] = test: Herbicidal effect post-emergence; assay type: in vivo; conditions: 320 g/ha
Procedure, shortened: (§1)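 Greenhouse plants in sandy loam sprayed post-emergence at single-leaf stage (2-3 weeks after sowing) with WP or EC formulations plus 0.5% additive at 600 l water/ha. Damage scored visually after ca. 3 weeks versus untreated controls, 0% (as control) to 100% (dead).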

Pharbitis purpurea = test: Herbicidal effect post-emergence; assay type: in vivo; conditions: 320 g/ha, visual grading after ca. 3 weeks (Table 7)
Procedure, shortened: as §1

Viola tricolor [3] = test: Herbicidal effect post-emergence; assay type: in vivo; conditions: 320 g/ha
Procedure, shortened: as §1

Stellaria media [4] = test: Herbicidal effect post-emergence; assay type: in vivo; conditions: 320 g/ha, visual grading after ca. 3 weeks (Table 7)
Procedure, shortened: as §1

[5] = test system: Polygonum convolvulus (=Fallopia convolvulus); test: Herbicidal effect post-emergence; assay type: in vivo; conditions: 320 g/ha, visual grading after ca. 3 weeks (Table 7)
Procedure, shortened: as §1

Amaranthus retroflexus [6] = test: Herbicidal effect post-emergence; assay type: in vivo; conditions: 320 g/ha
Procedure, shortened: as §1

Setaria viridis [7] = test: Herbicidal effect pre-emergence; assay type: in vivo; conditions: 320 g/ha, visual grading after ca. 3 weeks vs untreated controls
Procedure, shortened: (§2)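 Pre-emergence: WP or EC formulations applied as aqueous suspension/emulsion with 0.5% additive at 600 l water/ha onto covering soil of freshly sown pots in sandy loam. Greenhouse under optimum conditions; visual damage scored after ca. 3 weeks versus untreated controls (100% = plants died, 0% = as control).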

Viola tricolor [8] = test: Herbicidal effect pre-emergence; assay type: in vivo; conditions: 320 g/ha, visual grading after ca. 3 weeks vs untreated controls
Procedure, shortened: as §2

Amaranthus retroflexus [9] = test: Herbicidal effect pre-emergence; assay type: in vivo; conditions: 320 g/ha, visual grading after ca. 3 weeks vs untreated controls
Procedure, shortened: as §2

Nilaparvata lugens = Nilaparvata lugens spray test; assay type: in vivo; conditions: application rate 500 g/ha, after 4 days, rice plants
Description: (§3) Solvent: 78.0 parts by weight of acetone • • 1.5 parts by weight of dimethylformamide
(§4) Emulsifier: alkylarylpolyglycol ether
(§5) To produce a suitable preparation of active compound, 1 part by weight of active compound is mixed with the stated amount of solvents and is diluted with water, containing an emulsifier concentration of 1000 ppm, to the desired concentration. Further test concentrations are prepared by dilution with emulsifier containing water.
Rice plants (Oryza sativa) are sprayed with a preparation of the active ingredient of the desired concentration and the plants are infested with the brown planthopper (Nilaparvata lugens).
After 4 days mortality in % is determined. 100% means all planthoppers have been killed and 0% means none of the planthoppers have been killed.

Nezara viridula = Nezara viridula spray test; assay type: in vivo; conditions: application rate 500 g/ha, after 4 days, barley plants
Description: as §3, §4
To produce a suitable preparation of active compound, 1 part by weight of active compound is mixed with the stated amount of solvent, and the concentrate is diluted with water, containing an emulsifier concentration of 1000 ppm, to the desired concentration. Further test concentrations are prepared by dilution with emulsifier containing water.
Barley plants (Hordeum vulgare) infested with larvae of the southern green stink bug (Nezara viridula) are sprayed with a test solution containing the desired concentration of the active ingredient.
After 4 days mortality in % is determined. 100% means all the stink bugs have been killed; 0% means none of the stink bugs have been killed.

MATIN [10] = test: Herbicidal effect pre-emergence; assay type: in vivo, Matricaria inodora; conditions: 320 g/ha, visual grading after ca. 3 weeks vs untreated controls
Text: Seeds of mono- and dicotyledonous weed plants and crop plants are sown in wood-fiber pots in sandy loam and covered with soil. The compounds according to the invention, formulated in the form of wettable powders (WP) or as emulsifiable concentrates (EC), are then applied to the surface of the covering soil as aqueous suspension or emulsion, with the addition of 0.5% of an additive, at an application rate of 600 l of water/ha (converted).
Following treatment, the pots are placed in a greenhouse and kept under optimum growth conditions for the test plants. The visual grading of the damage to the test plants is carried out after ca. 3 weeks in comparison to untreated controls (herbicidal effect in percent (%): 100% effect=plants have died off, 0% effect=as control plants).

Stellaria media [11] = test: Herbicidal effect pre-emergence; assay type: in vivo; conditions: 320 g/ha, visual grading after ca. 3 weeks vs untreated controls
Procedure, shortened: as §2

Alopecurus myosuroides = test: Herbicidal effect pre-emergence; assay type: in vivo; conditions: 320 g/ha, visual grading after ca. 3 weeks vs untreated controls
Procedure, shortened: as §2

Abutilon theophrasti = test: Herbicidal effect post-emergence; assay type: in vivo; conditions: 320 g/ha, visual grading after ca. 3 weeks (Table 8)
Procedure, shortened: as §1

Phaedon cochleariae = Phaedon cochleariae spray test; assay type: in vivo; conditions: application rate 500 g/ha, after 7 days, Chinese cabbage leaf disks
Description: as §3, §4, §5
Chinese cabbage (Brassica pekinensis) leaf disks are sprayed with a preparation of the active ingredient of the desired concentration. Once dry, the leaf disks are infested with mustard beetle larvae (Phaedon cochleariae).
After 7 days mortality in % is determined. 100% means all beetle larvae have been killed and 0% means none of the beetle larvae have been killed.

[12] = visual grading after ca. 3 weeks (Table 7)
[13] = visual grading after ca. 3 weeks (Table 9)
[14] = visual grading after ca. 3 weeks (Table 8)

Nc1nsc2c1CC(CO)N(CC1CCCCC1)C2=O (centres unmarked) [Example I-007]
herbicidal effect MATIN (MATIN [1]): 100% | herbicidal effect SETVI (Setaria viridis [2]; [12]): 100% | herbicidal effect PHBPU (Pharbitis purpurea): 100% | herbicidal effect VIOTR (Viola tricolor [3]; [12]): 100% | herbicidal effect STEME (Stellaria media [4]): 100% | herbicidal effect POLCO [5]: 100% | herbicidal effect AMARE (Amaranthus retroflexus [6]; [12]): 100% | herbicidal effect SETVI (Setaria viridis [7]): 80% | herbicidal effect VIOTR (Viola tricolor [8]): 90% | herbicidal effect AMARE (Amaranthus retroflexus [9]): 100% | mortality (Nilaparvata lugens): 100%

CCC(=O)Nc1nsc2c(=O)n(CC3CCCCC3)cc(Br)c12 [Example I-078]
mortality (Nezara viridula): 90% | herbicidal effect SETVI (Setaria viridis [2]; [13]): 100% | herbicidal effect VIOTR (Viola tricolor [3]; [13]): 80% | herbicidal effect AMARE (Amaranthus retroflexus [6]; [13]): 100% | herbicidal effect MATIN (MATIN [10]): 100% | herbicidal effect SETVI (Setaria viridis [7]): 100% | herbicidal effect VIOTR (Viola tricolor [8]): 100% | herbicidal effect STEME (Stellaria media [11]): 100% | herbicidal effect ALOMY (Alopecurus myosuroides): 100% | herbicidal effect AMARE (Amaranthus retroflexus [9]): 100%

CC(=O)Nc1nsc2c(=O)n(CC3CCCCC3)cc(Cl)c12 [Example I-084]
herbicidal effect SETVI (Setaria viridis [2]; [14]): 100% | herbicidal effect VIOTR (Viola tricolor [3]; [14]): 100% | herbicidal effect ABUTH (Abutilon theophrasti): 100% | herbicidal effect AMARE (Amaranthus retroflexus [6]; [14]): 100% | mortality (Phaedon cochleariae): 83% | herbicidal effect MATIN (MATIN [10]): 100% | herbicidal effect SETVI (Setaria viridis [7]): 100% | herbicidal effect VIOTR (Viola tricolor [8]): 100% | herbicidal effect STEME (Stellaria media [11]): 100% | herbicidal effect ALOMY (Alopecurus myosuroides): 100% | herbicidal effect AMARE (Amaranthus retroflexus [9]): 100%

COCC(=O)Nc1nsc2c(=O)n(CC3CCCCC3)cc(Br)c12 [Example I-087]
mortality (Nezara viridula): 90% | herbicidal effect SETVI (Setaria viridis [2]; [13]): 100% | herbicidal effect VIOTR (Viola tricolor [3]; [13]): 100% | herbicidal effect AMARE (Amaranthus retroflexus [6]; [13]): 100% | herbicidal effect MATIN (MATIN [10]): 90% | herbicidal effect SETVI (Setaria viridis [7]): 100% | herbicidal effect VIOTR (Viola tricolor [8]): 100% | herbicidal effect STEME (Stellaria media [11]): 100% | herbicidal effect ALOMY (Alopecurus myosuroides): 100% | herbicidal effect AMARE (Amaranthus retroflexus [9]): 100% | mortality (Nilaparvata lugens): 100%

CC(=O)Nc1nsc2c(=O)n(CC3CCCCC3)cc(Br)c12 [Example I-102]
mortality (Nezara viridula): 90% | herbicidal effect SETVI (Setaria viridis [2]; [13]): 100% | herbicidal effect VIOTR (Viola tricolor [3]; [13]): 100% | herbicidal effect AMARE (Amaranthus retroflexus [6]; [13]): 100% | herbicidal effect SETVI (Setaria viridis [7]): 100% | herbicidal effect VIOTR (Viola tricolor [8]): 100% | herbicidal effect AMARE (Amaranthus retroflexus [9]): 100%
